Test results as given in US20240180880A1, “METHODS OF USING EHMT2 INHIBITORS IN TREATING OR PREVENTING BLOOD DISORDERS” (Epizyme, Inc., priority 2017, published 2024).
Like-named read-outs stand apart in the source and are kept apart here.

Test system: 284 cell lines
Assay: cells
Description: A screen of 284 cell lines to assess the antiproliferative effect of EHMT2 inhibition was conducted by treating cell lines in 384-well format with a half-log step dilutions of Compound 205 over 10 concentrations with a maximum concentration of 0.1% v/v DMSO. Cells were plated on Day 0 and treated with compound on Day 1. Culture medium was replaced on day 7 and cells redosed. After 10-day incubation, cells were fixed and stained with nuclear dye. Automated fluorescence microscopy was carried out using a Molecular Devices ImageXpress Micro XL high-content imager, and images were collected with a 4× objective. 16-bit TIFF images were acquired and analyzed with MetaXpress 5.1.0.41 software. Cell proliferation was measured by the fluorescence intensity of the incorporated nuclear dye. Cell count IC50 is the test compound concentration at 50% of maximal response of the untreated control.

CNc1cc(C)nc(Nc2ccc(OC)c(OCCCN3CCCC3)c2)n1 [Compound 205]
IC50 (Homo sapiens, T98G, read-out: Cell Count IC50, T98G, Central Nervous System, Glioma): > 10 µM | IC50 (Homo sapiens, TCC-SUP, read-out: Cell Count IC50, TCCSUP, Bladder): 0.1 to 1 µM | IC50 (Homo sapiens, THP-1, read-out: Cell Count IC50, Thp 1, Hematopoietic, Leukemia): 1 to 10 µM | IC50 (Homo sapiens, U2OS, read-out: Cell Count IC50, U2OS, Bone, Osteosarcoma): 1 to 10 µM | IC50 (Homo sapiens, U138-MG, read-out: Cell Count IC50, U-138MG, Central Nervous System, Glioma): 1 to 10 µM | IC50 (Homo sapiens, U-87 MG, read-out: Cell Count IC50, U-87 MG, Central Nervous System, Glioma): 1 to 10 µM | IC50 (Homo sapiens, U-118-MG, read-out: Cell Count IC50, U-118 MG, Central Nervous System, Glioma): 0.1 to 1 µM | IC50 (Homo sapiens, UMUC3, read-out: Cell Count IC50, UM-UC-3, Bladder): 1 to 10 µM | IC50 (Homo sapiens, WM 266-4, read-out: Cell Count IC50, WM-266-4, Skin, Melanoma): 0.1 to 1 µM | IC50 (Homo sapiens, WiDr, read-out: Cell Count IC50, WiDr, Colon): 1 to 10 µM | IC50 (Homo sapiens, YAPC, read-out: Cell Count IC50, YAPC, Pancreas): > 10 µM | IC50 (Homo sapiens, ZR-75-1, read-out: Cell Count IC50, ZR-75-1, Breast): > 10 µM | IC50 (Hs 445, read-out: Cell Count IC50, Hs 445, Hematopoietic, Lymphoma): 1 to 10 µM | IC50 (Hs766T, read-out: Cell Count IC50, Hs 766T, Pancreas): > 10 µM | IC50 (KHOS-240S, read-out: Cell Count IC50, KHOS-240S, Bone, Osteosarcoma): 1 to 10 µM | IC50 (KPL-1, read-out: Cell Count IC50, KPL-1, Breast): > 10 µM | IC50 (MS751, read-out: Cell Count IC50, MS751, Female GU, Cervix): 1 to 10 µM | IC50 (OCUG-1, read-out: Cell Count IC50, OCUG-1, Liver): 0.1 to 1 µM | IC50 (OE21, read-out: Cell Count IC50, OE21, Head and Neck): 1 to 10 µM | IC50 (RKOAS451, read-out: Cell Count IC50, RKO-AS45-1, Colon): 1 to 10 µM | IC50 (SKO-007, read-out: Cell Count IC50, SKO-007, Hematopoietic, Myeloma): 1 to 10 µM | IC50 (TE 381.T, read-out: Cell Count IC50, TE 381.T, Soft & Connective Tissue, Sarcoma): 1 to 10 µM | IC50 (read-out: Cell Count IC50, 5637, Bladder): > 10 µM | IC50 (read-out: Cell Count IC50, A7, Skin, Melanoma): > 10 µM | IC50 (read-out: Cell Count IC50, A388, Skin, Head and Neck): 1 to 10 µM | IC50 (read-out: Cell Count IC50, AGS, Stomach): 1 to 10 µM | IC50 (read-out: Cell Count IC50, AUS65, Breast): 1 to 10 µM | IC50 (read-out: Cell Count IC50, BC-1, Hematopoietic, Lymphoma): 0.1 to 1 µM | IC50 (read-out: Cell Count IC50, C32, Skin, Melanoma): 1 to 10 µM | IC50 (read-out: Cell Count IC50, DB, Hematopoietic, Lymphoma): 0.01 to 0.1 µM | IC50 (read-out: Cell Count IC50, DK-MG, Central Nervous System, Glioma): 1 to 10 µM | IC50 (read-out: Cell Count IC50, EB2, Hematopoietic, Lymphoma): 1 to 10 µM | IC50 (read-out: Cell Count IC50, EB-3, Hematopoietic, Lymphoma): > 10 µM | IC50 (read-out: Cell Count IC50, EM-2, Hematopoietic, Leukemia): 1 to 10 µM | IC50 (read-out: Cell Count IC50, H4, Central Nervous System, Glioma): > 10 µM | IC50 (read-out: Cell Count IC50, HLE, Liver): > 10 µM | IC50 (read-out: Cell Count IC50, HLF, Liver): 1 to 10 µM | IC50 (read-out: Cell Count IC50, HOS, Bone, Osteosarcoma): 0.1 to 1 µM | IC50 (read-out: Cell Count IC50, HT-3, Female GU, Cervix): > 10 µM | IC50 (read-out: Cell Count IC50, HT, Hematopoietic, Lymphoma): 1 to 10 µM | IC50 (read-out: Cell Count IC50, Hs 229.T, Lung, NSCLC): > 10 µM | IC50 (read-out: Cell Count IC50, Hs 611.T, Hematopoietic, Lymphoma): 1 to 10 µM | IC50 (read-out: Cell Count IC50, Hs 688(A).T, Skin, Melanoma): 1 to 10 µM | IC50 (read-out: Cell Count IC50, Hs 729, Soft & Connective Tissue, Sarcoma): 0.01 to 0.1 µM | IC50 (read-out: Cell Count IC50, Hs 821.T, Soft & Connective Tissue, Sarcoma): 1 to 10 µM | IC50 (read-out: Cell Count IC50, Hs 852.T, Skin, Melanoma): > 10 µM | IC50 (read-out: Cell Count IC50, Hs 888.Sk, Bone, Osteosarcoma): > 10 µM | IC50 (read-out: Cell Count IC50, Hs 934.T, Skin, Melanoma): > 10 µM | IC50 (read-out: Cell Count IC50, Hs 936.T(C1), Skin, Melanoma): 1 to 10 µM | IC50 (read-out: Cell Count IC50, IM-9, Hematopoietic, Myeloma): > 10 µM | IC50 (read-out: Cell Count IC50, J82, Bladder): 1 to 10 µM | IC50 (read-out: Cell Count IC50, JAR, Placenta): > 10 µM | IC50 (read-out: Cell Count IC50, KLE, Female GU, Uterus): > 10 µM | IC50 (read-out: Cell Count IC50, MT-3, Colon): 0.1 to 1 µM | IC50 (read-out: Cell Count IC50, MX1, Hematopoietic, Leukemia): > 10 µM | IC50 (read-out: Cell Count IC50, NAMALWA, Hematopoietic, Lymphoma): 1 to 10 µM | IC50 (read-out: Cell Count IC50, PA-1, Female GU, Ovary): 1 to 10 µM | IC50 (read-out: Cell Count IC50, PC-3, Prostate): > 10 µM | IC50 (read-out: Cell Count IC50, RD, Soft & Connective Tissue, Sarcoma): 1 to 10 µM | IC50 (read-out: Cell Count IC50, RKO, Colon): 1 to 10 µM | IC50 (read-out: Cell Count IC50, SH-4, Skin, Melanoma): 1 to 10 µM | IC50 (read-out: Cell Count IC50, SK-PN-DW, Soft & Connective Tissue, Sarcoma): 1 to 10 µM | IC50 (read-out: Cell Count IC50, SR, Hematopoietic, Lymphoma): 1 to 10 µM | IC50 (read-out: Cell Count IC50, T24, Bladder): > 10 µM | IC50 (read-out: Cell Count IC50, TE 125.T, Soft & Connective Tissue, Sarcoma): 0.1 to 1 µM | IC50 (read-out: Cell Count IC50, TF-1, Hematopoietic, Leukemia): 1 to 10 µM | IC50 (read-out: Cell Count IC50, TT, Endocrine, Thyroid): 1 to 10 µM | IC50 (read-out: Cell Count IC50, TUR, Hematopoietic, Lymphoma): 1 to 10 µM | IC50 (read-out: Cell Count IC50, U266B1, Hematopoietic, Myeloma): 1 to 10 µM | IC50 (read-out: Cell Count IC50, VA-ES-BJ, Soft & Connective Tissue, Sarcoma): > 10 µM | IC50 (read-out: Cell Count IC50, Y79, Eve, Eye): > 10 µM
